This passage reports melting point and EC50 results from patent publication US10584115B2, “Substituted pyridine and pyrazine BMI-1 inhibitors” (PTC Therapeutics, Inc., priority 2013, dated 2020).

As usually defined, the melting point is the temperature, or range, at which the solid turns liquid. What is called EC50 is the concentration that produces a half-maximal response.

Like-named read-outs stand apart in the source and are kept apart here.

One data set relates to Bmi-1 protein. The data set can be described thus: Sandwich ELISA Assay (Bmi-1 protein level in HT-1080 cells after compound treatment). The class given is cell-based. Summed up:
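Sandwich ELISA quantified Bmi-1 protein against recombinant standard (125–8000 pg/mL), with lysates captured overnight at 4 °C and signal by HRP/TMB at 450 nm (570 nm reference). Lysates came from HT-1080 cells incubated 40–48 h with test compounds in 0.5% DMSO.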

Where [1] appears, read: Table 1, Bmi-1 sandwich ELISA, read-out: ELISA EC50 value for Bmi-1 protein.
The mark [2] stands for this setting: read-out: ELISA EC50 value for Bmi-1 protein, Table 1, Bmi-1 sandwich ELISA.

For `Cc1nc2ccc(F)cn2c1-c1cc(C#N)cc(Nc2ccccc2)n1` [compound 646, 2-(6-fluoro-2-methylimidazo[1,2-a]pyridin-3-yl)-6-(phenylamino)pyridine-4-carbonitrile], the melting point lay within 176 to 178 °C. Also, the EC50 with Bmi-1 protein (setting [1]) lay within 100 to 3000 nM.

As for `Cc1cc(Nc2cc(C#N)cc(-c3c(C(F)F)nc4ccc(F)cn34)n2)cnc1OC(F)F` [compound 468, 2-{[6-(difluoromethoxy)-5-methylpyridin-3-yl]amino}-6-[2-(difluoromethyl)-6-fluoroimidazo[1,2-a]pyridin-3-yl]pyridine-4-carbonitrile], the melting point lay in the range of 239 to 241 °C. In addition, the EC50 with Bmi-1 protein (setting [1]) was in the range of 10 to 100 nM. Take `NC(=O)Nc1cc(Nc2ccc(C(F)(F)F)cc2)nc(-c2c(C3CC3)nc3ccc(F)cn23)c1` [compound 369, 1-[2-(2-cyclopropyl-6-fluoroimidazo[1,2-a]pyridin-3-yl)-6-{[4-(trifluoromethyl)phenyl]amino}pyridin-4-yl]urea]: the melting point lay in the range of 232 to 235 °C. For the same molecule, the concentration for a half-maximal effect (EC50) with Bmi-1 protein (setting [2]) lay in the range of 100 to 3000 nM. `CCn1nc(C(F)(F)F)c(-c2cncc(Nc3ccc(C(F)(F)F)cc3)n2)c1C` [compound 329, 6-[1-ethyl-5-methyl-3-(trifluoromethyl)-1H-pyrazol-4-yl]-N-[4-(trifluoromethyl)phenyl]pyrazin-2-amine] registered a melting point of 150 to 151 °C. Besides, the half-maximal effective concentration (EC50) in the data set on Bmi-1 protein (setting [1]) is 10 to 100 nM.

In turn, `Cc1nc2ccc(F)cn2c1-c1cncc(Nc2ccccc2F)n1` [compound 598, 6-(6-fluoro-2-methylimidazo[1,2-a]pyridin-3-yl)-N-(2-fluorophenyl)pyrazin-2-amine] had a melting point of 218 to 220 °C. Besides, in the data set on Bmi-1 protein (setting [1]), the concentration giving a half-maximal response (EC50) lay in the range of 100 to 3000 nM. Taken in the same sequence, the figures for `COC(=O)c1ccc2nc(C(F)(F)F)c(-c3cncc(Nc4ccc(OC(F)F)cc4)n3)n2c1` [compound 178, methyl 3-(6-{[4-(difluoromethoxy)phenyl]amino}pyrazin-2-yl)-2-(trifluoromethyl)imidazo[1,2-a]pyridine-6-carboxylate] were 227 to 229 °C and 100 to 3000 nM. Taken in the same sequence, the figures for `CCOC(=O)n1nc(C)c(-c2cncc(Nc3ccc(OC(F)F)cc3)n2)c1C` [compound 279, ethyl 4-(6-{[4-(difluoromethoxy)phenyl]amino}pyrazin-2-yl)-3,5-dimethyl-1H-pyrazole-1-carboxylate] were 92 to 93 °C and 100 to 3000 nM.

`Cc1cc(Nc2cc(C#N)cc(-c3c(C)nc4c(F)cc(F)cn34)n2)cnc1OC(F)F` [compound 471, 2-{[6-(difluoromethoxy)-5-methylpyridin-3-yl]amino}-6-(6,8-difluoro-2-methylimidazo[1,2-a]pyridin-3-yl)pyridine-4-carbonitrile] yielded a melting point of 236 to 238 °C. Moreover, the 50% effective concentration (EC50) in the data set on Bmi-1 protein (setting [1]) fell in the range of 100 to 3000 nM.

For `N#Cc1cc(Nc2ccc(C(F)(F)F)c(F)c2)nc(-c2c(C3CC3)nc3ccc(F)cn23)c1` [compound 347, 2-(2-cyclopropyl-6-fluoroimidazo[1,2-a]pyridin-3-yl)-6-{[3-fluoro-4-(trifluoromethyl)phenyl]amino}pyridine-4-carbonitrile], the melting point was in the range of 256 to 258 °C. Moreover, in the data set on Bmi-1 protein (setting [1]), the EC50 lay within 10 to 100 nM. For the molecule `Cc1nc2ccc(F)cn2c1-c1cc(C#N)cc(Nc2ccc(Cl)cc2)n1` [compound 647, 2-[(4-chlorophenyl)amino]-6-(6-fluoro-2-methylimidazo[1,2-a]pyridin-3-yl)pyridine-4-carbonitrile], the melting point fell in the range of 148 to 151 °C. Moreover, the concentration giving a half-maximal response (EC50) with Bmi-1 protein (setting [1]) was 10 to 100 nM. Taken in the same sequence, the figures for `NS(=O)(=O)Nc1cc(Nc2ccc(C(F)(F)F)cc2)nc(-c2c(C3CC3)nc3ccc(F)cn23)c1` [compound 368, N-[2-(2-cyclopropyl-6-fluoroimidazo[1,2-a]pyridin-3-yl)-6-{[4-(trifluoromethyl)phenyl]amino}pyridin-4-yl]sulfuric diamide] were 158 to 160 °C and 100 to 3000 nM. Taken in the same sequence, the figures for `N#Cc1cc(Nc2ccc(C(F)(F)F)cc2)nc(-c2c(C3CC3)nc3ccc(F)cn23)c1` [compound 346, 2-(2-cyclopropyl-6-fluoroimidazo[1,2-a]pyridin-3-yl)-6-{[4-(trifluoromethyl)phenyl]amino}pyridine-4-carbonitrile] were 245 to 247 °C and 10 to 100 nM. Taken in the same sequence, the figures for `Cc1nc2ccc(F)cn2c1-c1cncc(Nc2ccc(Cl)cc2)n1` [compound 593, N-(4-chlorophenyl)-6-(6-fluoro-2-methylimidazo[1,2-a]pyridin-3-yl)pyrazin-2-amine] were 215 to 218 °C and 1 to 10 nM. Molecule `CCn1nc(C)c(-c2cncc(Nc3ccc(OC(F)F)c(F)c3)n2)c1C` [compound 382, N-[4-(difluoromethoxy)-3-fluorophenyl]-6-(1-ethyl-3,5-dimethyl-1H-pyrazol-4-yl)pyrazin-2-amine] showed a melting point of 129 to 130 °C. Moreover, in the data set on Bmi-1 protein (setting [1]), the 50% effective concentration (EC50) was 1 to 10 nM. Taken in the same sequence, the figures for `Cc1nc2cc(F)ccc2n1-c1cncc(Nc2ccc(OC(F)(F)F)cc2)n1` [compound 206, 6-(5-fluoro-2-methyl-1H-benzimidazol-1-yl)-N-[4-(trifluoromethoxy)phenyl]pyrazin-2-amine] were 248 to 250 °C and 100 to 3000 nM.

In the case of `Cc1nc2cc(F)c(F)cc2n1-c1cncc(Nc2ccc(C(F)F)cc2)n1` [compound 501, 6-(5,6-difluoro-2-methyl-1H-benzimidazol-1-yl)-N-[4-(difluoromethyl)phenyl]pyrazin-2-amine], the melting point lay in the range of 209 to 211 °C. Moreover, the EC50 in the data set on Bmi-1 protein (setting [1]) fell in the range of 10 to 100 nM. Taken in the same sequence, the figures for `Fc1cc(F)c2nc(C3CC3)n(-c3cncc(Nc4ccc(OC(F)(F)F)cc4)n3)c2c1` [compound 463, 6-(2-cyclopropyl-4,6-difluoro-1H-benzimidazol-1-yl)-N-[4-(trifluoromethoxy)phenyl]pyrazin-2-amine] were 218 to 220 °C and 100 to 3000 nM. Taken in the same sequence, the figures for `Cc1ccc(Nc2cc(C#N)cc(-c3c(C)nc4ccc(F)cn34)n2)cc1` [compound 648, 2-(6-fluoro-2-methylimidazo[1,2-a]pyridin-3-yl)-6-[(4-methylphenyl)amino}pyridine-4-carbonitrile] were 185 to 188 °C and 1 to 10 nM. Taken in the same sequence, the figures for `COc1ccc(Nc2cncc(-n3c(C)nc4ccc(F)cc43)n2)cc1` [compound 552, 6-(6-fluoro-2-methyl-1H-benzimidazol-1-yl)-N-(4-methoxyphenyl)pyrazin-2-amine] were 184 to 186 °C and < 1 nM.

For the molecule `Cc1nc2ccc(F)cn2c1-c1cncc(Nc2cccc(C(F)(F)F)c2)n1` [compound 594, 6-(6-fluoro-2-methylimidazo[1,2-a]pyridin-3-yl)-N-[3-(trifluoromethyl)phenyl]pyrazin-2-amine], the melting point is 188 to 190 °C. Also, the EC50 in the data set on Bmi-1 protein (setting [1]) was 100 to 3000 nM. The molecule `Fc1ccn2nc(C3CC3)c(-c3cncc(Nc4ccc(C(F)(F)F)cc4)n3)c2c1` [compound 535, 6-(2-cyclopropyl-5-fluoropyrazolo[1,5-a]pyridin-3-yl)-N-[4-(trifluoromethyl)phenyl]pyrazin-2-amine] returned a melting point of 122 to 125 °C. In the data set on Bmi-1 protein (setting [1]), the EC50 fell in the range of 10 to 100 nM.

Take `Fc1ccc2nc(C3CCC3)n(-c3cncc(Nc4ccc(C(F)(F)F)cc4)n3)c2c1` [compound 485, 6-(2-cyclobutyl-6-fluoro-1H-benzimidazol-1-yl)-N-[4-(trifluoromethyl)phenyl]pyrazin-2-amine]: the melting point is 289 to 291 °C. In addition, the EC50 with Bmi-1 protein (setting [1]) lay within 100 to 3000 nM. Consider `CCc1nc(C)cn1-c1cncc(Nc2ccc(C(F)(F)F)cc2)n1` [compound 179, 6-(2-ethyl-4-methyl-1H-imidazol-1-yl)-N-[4-(trifluoromethyl)phenyl]pyrazin-2-amine], for which the melting point is 207 to 208 °C. In the data set with Bmi-1 protein (setting [2]), the concentration for a half-maximal effect (EC50) lay in the range of 100 to 3000 nM. `Cc1nc2ccc(F)cn2c1-c1cc(C#N)cc(Nc2ccc(OC(F)(F)F)cc2)n1` [compound 249, 2-(6-fluoro-2-methylimidazo[1,2-a]pyridin-3-yl)-6-{[4-(trifluoromethoxy)phenyl]amino}pyridine-4-carbonitrile]: the melting point fell in the range of 209 to 210 °C. The EC50 in the data set on Bmi-1 protein (setting [1]) was in the range of 10 to 100 nM. For the molecule `Cc1nc2c(n1-c1cncc(Nc3ccc(OC(F)(F)F)cc3)n1)CCCC2` [compound 268, 6-(2-methyl-4,5,6,7-tetrahydro-1H-benzimidazol-1-yl)-N-[4-(trifluoromethoxy)phenyl]pyrazin-2-amine], the EC50 in the data set on Bmi-1 protein (setting [1]) lay within 10 to 100 nM. Still for that read-out and setting: the value for `Cc1nc2cccc(F)c2n1-c1cncc(Nc2ccc(C(F)(F)F)cc2)n1` [compound 358, 6-(7-fluoro-2-methyl-1H-benzimidazol-1-yl)-N-[4-(trifluoromethyl)phenyl]pyrazin-2-amine] was 10 to 100 nM; that for `COc1ccc(Nc2cc(-n3c(C)ccc3C)cc(-n3c(C)nc4ccccc43)n2)cc1` [compound 577, 4-(2,5-dimethyl-1H-pyrrol-1-yl)-N-(4-methoxyphenyl)-6-(2-methyl-1H-benzimidazol-1-yl)pyridin-2-amine] was 100 to 3000 nM. On the same count and under the same terms, the value for `Fc1cnc2nc(C3CC3)n(-c3cncc(Nc4ccc(OC(F)(F)F)cc4)n3)c2c1` [compound 456, 6-(2-cyclopropyl-6-fluoro-1H-imidazo[4,5-b]pyridin-1-yl)-N-[4-(trifluoromethoxy)phenyl]pyrazin-2-amine] was 100 to 3000 nM; that for `Cc1ccc(Nc2cncc(-c3c(C(F)(F)F)nc4ccc(F)cn34)n2)cc1` [compound 671, 6-[6-fluoro-2-(trifluoromethyl)imidazo[1,2-a]pyridin-3-yl]-N-(4-methylphenyl)pyrazin-2-amine] was 100 to 3000 nM; that for `COc1ccc(Nc2cncc(-c3c(C(F)(F)F)nc4ccc(OC)cn34)n2)cc1` [Cpd 47, N-(4-methoxyphenyl)-6-[6-methoxy-2-(trifluoromethyl)imidazo[1,2-a]pyridin-3-yl]pyrazin-2-amine] was 1 to 10 nM.
